The target of one test is B-Raf (Homo sapiens, UniProt P15056). As to the kind of experiment: Fluorescence anisotropy kinase binding assay (Assay 1). The source says:
The activity of compounds of formula (I) as B-Raf inhibitors may be determined by the following in vitro assay:
Fluorescence Anisoptrophy Kinase Binding Assay
The concentration of kinase enzyme should preferably be >1×Kf. The concentration of fluorescent ligand required will depend on the instrumentation used, and the fluorescent and physicochemical properties. The concentration used must be lower than the concentration of kinase enzyme, and preferably less than half the kinase enzyme concentration. A typical protocol is:
All compounds are serially diluted in DMSO, then by a one step dilution into buffer of comparison, 50 mM HEPES, […] pH7.5, 1 mM CHAPS, 10 mM MgCL2, for the assay.
B-Raf Enzyme concentration: 1 nM
Fluorescent ligand concentration: 0.5 nM
Test compound concentration: 0.5 nM-100 uM
Components incubated in 10 ul final volume in LJL HE 384 type B black microtitre plate until equilibrium reached (Over 3 h, up to 30 h)
Fluorescence anisotropy read in an LJL Acquest fluorescence reader.
Definitions: Ki=dissociation constant for inhibitor binding
• Kf=dissociation constant for fluorescent ligand binding
The fluorescent ligand is the following compound:
which is derived from 5-[2(4aminomethylphenyl)-5-pyridin-4-yl-1H-imidazolyl-4-yl]-2-chlorophenol and rhodamine green.

Test [1] has as its system HFF (normal human foreskin fibroblasts). The test can be described thus: Methylene blue growth inhibition assay (Assay 2), HFF. Format: cell-based. Particulars: Fibroblast, 72 h, B-Raf wt, Ras wt, 3 days, read-out: IC50 cell growth, HFF.
Test [2] concerns Colo201 (human colon carcinoma). The test can be described thus: XTT 72 hr growth inhibition (Assay 3), Colo201. It counts as cell-based. The conditions noted are these: COLO 201, colorectal cancer, B-Raf status ND, Ras ND, read-out: IC50 cell viability, Colo201. The method, then:
XTT 72 Hr Growth Inhibition Protocol for Mammalian Cultured Cells (Assay 3)
Human diploid foreskin fibroblasts (HFF) or human colon carcinoma (Colo 201) cells were grown in Dulbecco's modified Eagle's medium (DMEM) (kvitrogen/Life Technologies) containing 10% fetal bovine serum (FBS) and the antibiotics penicillin (100 Units/ml) and streotomycin (100 microgramnis/ml) (Invitrogen/Life Technologies). Growth was at 37° C. in humidified 5% CO2 incubators in 75 cm^2 plastic flasks. Cells were harvested using 0.25% trypsin/1 mM ethylenediaminetetraacetic acid (EDTA), resuspended in growth medium, and counted using a hemocytometer. Flat-bottomed 96-well plates were seeded with 2×10^3 cells/well in a volume of 200 ul from trypsinized exponentially growing cultures. To “blank” wells, growth medium was added with no additions. Cells were incubated overnight to permit attachment.
Next day, medium from wells that contained cells was replaced with 180 microliters of fresh medium. Appropriate dilutions of test compounds were added to the wells from stock soloutions of compound dissolved in dimethyl sulfoxide (DMSO); final DMSO concentration in all wells was 0.2%. […] Absorbance at 450 nm was then determined using a 96-well UV plate reader (Molecular Devices). Under these conditions, absorbance of untreated control cells at […] was at least 1.0 optical density unit/ml. […]

In test [3] the test system is Colo205 (colon carcinoma). As to the kind of experiment: Methylene blue growth inhibition assay (Assay 2), Colo205. The conditions noted are these: Homo sapiens, COLO 205, 72 h, colorectal cancer, B-Raf V599E, Ras wt, 3 days, read-out: IC50 cell growth, Colo205. It counts as cell-based.
The test system of a further test is A375P (human melanoma). As to the kind of experiment: Methylene blue growth inhibition assay (Assay 2), A375P. Format: cell-based. The conditions noted are these: 72 h, B-Raf V599E, Ras wt, 3 days, read-out: IC50 cell growth, A375P.
In another test the test system is SKMEL3 (human melanoma). As to the kind of experiment: Methylene blue growth inhibition assay (Assay 2), SKMEL3. Format: cell-based. The conditions noted are these: SK-MEL3, 72 h, B-Raf V599E, Ras wt, 3 days, read-out: IC50 cell growth, SKMEL3.
The test system of another test is SKMEL2 (human melanoma). As to the kind of experiment: Methylene blue growth inhibition assay (Assay 2), SKMEL2. It counts as cell-based. Particulars: SK-MEL-2, 72 h, B-Raf wt, [Q61R]N-Ras, 3 days, read-out: IC50 cell growth, SKMEL2.

Molecules are shown by their SMILES.

Sequence of B-Raf (P15056 whole entry): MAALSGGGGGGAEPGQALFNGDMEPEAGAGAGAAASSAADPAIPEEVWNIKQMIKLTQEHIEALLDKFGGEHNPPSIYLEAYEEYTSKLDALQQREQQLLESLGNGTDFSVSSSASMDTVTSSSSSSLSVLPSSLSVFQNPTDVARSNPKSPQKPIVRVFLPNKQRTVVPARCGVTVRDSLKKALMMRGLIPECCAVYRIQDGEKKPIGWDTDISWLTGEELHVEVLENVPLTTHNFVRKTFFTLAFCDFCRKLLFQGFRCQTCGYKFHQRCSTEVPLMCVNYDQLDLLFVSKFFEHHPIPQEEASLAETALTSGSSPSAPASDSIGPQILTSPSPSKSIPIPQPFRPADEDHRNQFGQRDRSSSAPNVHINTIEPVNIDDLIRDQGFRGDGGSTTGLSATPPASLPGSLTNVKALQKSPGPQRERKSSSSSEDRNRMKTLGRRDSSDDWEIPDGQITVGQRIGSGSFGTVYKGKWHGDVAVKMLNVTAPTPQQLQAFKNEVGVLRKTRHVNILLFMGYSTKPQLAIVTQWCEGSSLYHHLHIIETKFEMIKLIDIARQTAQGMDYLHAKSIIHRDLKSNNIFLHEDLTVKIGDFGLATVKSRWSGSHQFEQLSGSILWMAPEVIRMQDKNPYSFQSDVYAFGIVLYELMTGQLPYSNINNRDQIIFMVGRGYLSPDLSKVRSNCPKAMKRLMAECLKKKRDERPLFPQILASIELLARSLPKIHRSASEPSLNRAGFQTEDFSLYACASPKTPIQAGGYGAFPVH

Broadly, the Kd is the free concentration of one partner at which half of the binding sites on the other are occupied at equilibrium, for simple one-to-one binding. For orientation: IC50 means the concentration that gives 50% inhibition. Regarding `CN(C)CCOc1ccc(-c2cc(-c3ccc(Cl)c(O)c3)c(-c3ccncc3)o2)cc1` [Example 3, 2-Chloro-5-{5-[4-(2-dimethylamino-ethoxy)-phenyl]-2-pyridin-4-yl-furan-3-yl}-phenol], the affinity at B-Raf, expressed as Kd, was 3 nM. Besides, the IC50 in test [1] is over 30000 nM; in test [2], 4500 nM; in test [3], 9400 nM; with A375P (human melanoma), 2300 nM; in the test with SKMEL3 (human melanoma) it was 890 nM; in the test with SKMEL2 (human melanoma), over 1400 nM.

The record behind these values is patent publication US7446106B2, “Pyridylfurans and pyrroles as Raf kinase inhibitors” (SmithKline Beecham plc, priority 2001, dated 2008).
